{"source": "patent US4605744A", "about": "“Imidazole derivatives” (Hoffmann-La Roche Inc., priority 1985, dated 1986)", "assay_in_all_cases": "In vitro antibacterial activity (MIC)", "type_in_all_cases": "cell-based", "key": {"C. freundii 8ASM": {"system": "C. freundii 8ASM", "settings": "Citrobacter freundii, 8ASM, C. freundii 8ASM; read-out: MIC", "outline": "(§1)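 Mueller-Hinton broth carries the compound at 128–0.008 μg/ml; diluted drug may be used fresh or stored frozen at -10° to -70° C before use. Wells are seeded with a 10^-2 dilution of overnight culture and incubated overnight at 37° C.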"}, "E. aerogenes 503-478": {"system": "E. aerogenes 503-478", "settings": "Klebsiella aerogenes, 503478, E. aerogenes 503-478; read-out: MIC", "outline": "as §1"}, "E. aerogenes 83": {"system": "E. aerogenes 83", "settings": "Klebsiella aerogenes, 83, E. aerogenes 83; read-out: MIC", "outline": "as §1"}, "E. aerogenes 8": {"system": "E. aerogenes 8", "settings": "Klebsiella aerogenes; E. aerogenes 8; read-out: MIC", "outline": "as §1"}, "E. cloacae 214": {"system": "E. cloacae 214", "settings": "Enterobacter cloacae, 214, E. cloacae 214; read-out: MIC", "outline": "as §1"}, "E. cloacae 5699": {"system": "E. cloacae 5699", "settings": "Enterobacter cloacae, 5699, E. cloacae 5699; read-out: MIC", "outline": "as §1"}, "E. cloacae 6951": {"system": "E. cloacae 6951", "settings": "Enterobacter cloacae, 6951, E. cloacae 6951; read-out: MIC", "outline": "as §1"}, "E. cloacae 9295": {"system": "E. cloacae 9295", "settings": "Enterobacter cloacae, 9295, E. cloacae 9295; read-out: MIC", "outline": "as §1"}, "E. cloacae 9570A": {"system": "E. cloacae 9570A", "settings": "Enterobacter cloacae, read-out: MIC", "outline": "as §1"}, "E. coli 387-1": {"system": "E. coli 387-1", "settings": "Escherichia coli, 3871, E. coli 387-1; read-out: MIC", "outline": "as §1"}, "E. coli 48": {"system": "E. coli 48", "settings": "Escherichia coli, 48, E. coli 48; read-out: MIC", "outline": "as §1"}, "E. coli 4": {"system": "E. coli 4", "settings": "Escherichia coli, 4", "outline": "as §1"}, "E. coli 503-455": {"system": "E. coli 503-455", "settings": "Escherichia coli, 503455", "outline": "as §1"}, "E. coli 5152": {"system": "E. coli 5152", "settings": "Escherichia coli, 5152", "outline": "as §1"}, "E. coli R-563": {"system": "E. coli R-563", "settings": "Escherichia coli, R563, E. coli R-563; read-out: MIC", "outline": "as §1"}, "K. pneumoniae 35": {"system": "K. pneumoniae 35", "settings": "Klebsiella pneumoniae; K. pneumoniae 35; read-out: MIC", "outline": "as §1"}, "K. pneumoniae 4964": {"system": "K. pneumoniae 4964", "settings": "Klebsiella pneumoniae, 4964", "outline": "as §1"}, "K. pneumoniae 503-964": {"system": "K. pneumoniae 503-964", "settings": "Klebsiella pneumoniae, 503964; K. pneumoniae 503-964; read-out: MIC", "outline": "as §1"}, "K. pneumoniae 503-994": {"system": "K. pneumoniae 503-994", "settings": "Klebsiella pneumoniae, 503994, K. pneumoniae 503-994; read-out: MIC", "outline": "as §1"}, "K. pneumoniae 5096": {"system": "K. pneumoniae 5096", "settings": "Klebsiella pneumoniae; K. pneumoniae 5096; read-out: MIC", "outline": "as §1"}, "K. pneumoniae 8357": {"system": "K. pneumoniae 8357", "settings": "Klebsiella pneumoniae, 8357, K. pneumoniae 8357; read-out: MIC", "outline": "as §1"}, "K. pneumoniae A": {"system": "K. pneumoniae A", "settings": "Klebsiella pneumoniae, K. pneumoniae A; read-out: MIC", "outline": "as §1"}, "K. pneumoniae HE7": {"system": "K. pneumoniae HE7", "settings": "Klebsiella pneumoniae; K. pneumoniae HE7; read-out: MIC", "outline": "as §1"}, "P. aeruginosa 503-820": {"system": "P. aeruginosa 503-820", "settings": "Pseudomonas aeruginosa, 503820; P. aeruginosa 503-820; read-out: MIC", "outline": "as §1"}, "P. aeruginosa 8710": {"system": "P. aeruginosa 8710", "settings": "Pseudomonas aeruginosa; P. aeruginosa 8710; read-out: MIC", "outline": "as §1"}, "P. aeruginosa 8780": {"system": "P. aeruginosa 8780", "settings": "Pseudomonas aeruginosa; P. aeruginosa 8780; read-out: MIC", "outline": "as §1"}, "P. mirabilis 190": {"system": "P. mirabilis 190", "settings": "Proteus mirabilis, 190, P. mirabilis 190; read-out: MIC", "outline": "as §1"}, "P. mirabilis 2": {"system": "P. mirabilis 2", "settings": "Proteus mirabilis, 2, P. mirabilis 2; read-out: MIC", "outline": "as §1"}, "P. rettgeri ATCC 9250": {"system": "P. rettgeri ATCC 9250", "settings": "Providencia rettgeri, ATCC9250, P. rettgeri ATCC 9250; read-out: MIC", "outline": "as §1"}, "P. vulgaris ATCC 6380": {"system": "P. vulgaris ATCC 6380", "settings": "Proteus vulgaris, ATCC6380, P. vulgaris ATCC 6380; read-out: MIC", "outline": "as §1"}, "S. aureus Giorgio": {"system": "S. aureus Giorgio", "settings": "Staphylococcus aureus", "outline": "as §1"}, "S. marcescens 5805": {"system": "S. marcescens 5805", "settings": "Serratia marcescens, 5805, S. marcescens 5805; read-out: MIC", "outline": "as §1"}, "S. marcescens S2": {"system": "S. marcescens S2", "settings": "Serratia marcescens; S. marcescens S2; read-out: MIC", "outline": "as §1"}, "S. marcescens S3": {"system": "S. marcescens S3", "settings": "Serratia marcescens; S. marcescens S3; read-out: MIC", "outline": "as §1"}, "S. marcescens S4": {"system": "S. marcescens S4", "settings": "Serratia marcescens, S4, S. marcescens S4; read-out: MIC", "outline": "as §1"}, "S. marcescens SM": {"system": "S. marcescens SM", "settings": "Serratia marcescens, read-out: MIC", "outline": "as §1"}, "S. pneumoniae 6301": {"system": "S. pneumoniae 6301", "settings": "Streptococcus pneumoniae, 6301", "outline": "as §1"}, "S. schottmuelleri": {"system": "S. schottmuelleri", "settings": "read-out: MIC", "outline": "as §1"}, "S. typhi P58A": {"system": "S. typhi P58A", "settings": "Salmonella enterica, TYPHI", "outline": "as §1"}}, "note": "Where a name gives a salt, the structure may show the parent alone.", "data": [{"smiles": "CC1(C)S[C@@H]2[C@H](N=CN3CCC(CCn4ccnc4)CC3)C(=O)N2[C@H]1C(=O)O", "note": "[B, [2S-2alpha,5alpha,6beta)]-6-[[[4-[2-(1H-imidazol-1-yl)ethyl]-1-piperidinyl]methylene]amino]-3,3-dimethyl-7-oxo-4-thia-1-azabicyclo[3.2.0]heptane-2-carboxylic acid hydrate hydrochloride]", "values": [{"measurement": "MIC", "setting": "C. freundii 8ASM", "value": 0.062, "unit": "µg/mL"}, {"measurement": "MIC", "setting": "E. aerogenes 503-478", "value": 2, "unit": "µg/mL"}, {"measurement": "MIC", "setting": "E. aerogenes 83", "value": 0.5, "unit": "µg/mL"}, {"measurement": "MIC", "setting": "E. aerogenes 8", "value": 0.25, "unit": "µg/mL"}, {"measurement": "MIC", "setting": "E. cloacae 214", "value": 1, "unit": "µg/mL"}, {"measurement": "MIC", "setting": "E. cloacae 5699", "value": 0.5, "unit": "µg/mL"}, {"measurement": "MIC", "setting": "E. cloacae 6951", "value": 16, "unit": "µg/mL"}, {"measurement": "MIC", "setting": "E. cloacae 9295", "value": 0.5, "unit": "µg/mL"}, {"measurement": "MIC", "setting": "E. cloacae 9570A", "value": 0.5, "unit": "µg/mL"}, {"measurement": "MIC", "setting": "E. coli 387-1", "value": 8, "unit": "µg/mL"}, {"measurement": "MIC", "setting": "E. coli 48", "value": 0.25, "unit": "µg/mL"}, {"measurement": "MIC", "setting": "E. coli 4", "value": 8, "unit": "µg/mL"}, {"measurement": "MIC", "setting": "E. coli 503-455", "value": 1, "unit": "µg/mL"}, {"measurement": "MIC", "setting": "E. coli 5152", "value": 16, "unit": "µg/mL"}, {"measurement": "MIC", "setting": "E. coli R-563", "value": 8, "unit": "µg/mL"}, {"measurement": "MIC", "setting": "K. pneumoniae 35", "value": 1, "unit": "µg/mL"}, {"measurement": "MIC", "setting": "K. pneumoniae 4964", "value": 0.5, "unit": "µg/mL"}, {"measurement": "MIC", "setting": "K. pneumoniae 503-964", "value": 0.25, "unit": "µg/mL"}, {"measurement": "MIC", "setting": "K. pneumoniae 503-994", "value": 0.25, "unit": "µg/mL"}, {"measurement": "MIC", "setting": "K. pneumoniae 5096", "value": 0.25, "unit": "µg/mL"}, {"measurement": "MIC", "setting": "K. pneumoniae 8357", "value": 0.25, "unit": "µg/mL"}, {"measurement": "MIC", "setting": "K. pneumoniae A", "value": 0.062, "unit": "µg/mL"}, {"measurement": "MIC", "setting": "K. pneumoniae HE7", "value": "> 128", "unit": "µg/mL"}, {"measurement": "MIC", "setting": "P. aeruginosa 503-820", "value": "> 128", "unit": "µg/mL"}, {"measurement": "MIC", "setting": "P. aeruginosa 8710", "value": "> 128", "unit": "µg/mL"}, {"measurement": "MIC", "setting": "P. aeruginosa 8780", "value": "> 128", "unit": "µg/mL"}, {"measurement": "MIC", "setting": "P. mirabilis 190", "value": 0.5, "unit": "µg/mL"}, {"measurement": "MIC", "setting": "P. mirabilis 2", "value": 1, "unit": "µg/mL"}, {"measurement": "MIC", "setting": "P. rettgeri ATCC 9250", "value": 0.5, "unit": "µg/mL"}, {"measurement": "MIC", "setting": "P. vulgaris ATCC 6380", "value": 0.5, "unit": "µg/mL"}, {"measurement": "MIC", "setting": "S. aureus Giorgio", "value": 32, "unit": "µg/mL"}, {"measurement": "MIC", "setting": "S. marcescens 5805", "value": 1, "unit": "µg/mL"}, {"measurement": "MIC", "setting": "S. marcescens S2", "value": 0.5, "unit": "µg/mL"}, {"measurement": "MIC", "setting": "S. marcescens S3", "value": 0.5, "unit": "µg/mL"}, {"measurement": "MIC", "setting": "S. marcescens S4", "value": 1, "unit": "µg/mL"}, {"measurement": "MIC", "setting": "S. marcescens SM", "value": 0.25, "unit": "µg/mL"}, {"measurement": "MIC", "setting": "S. pneumoniae 6301", "value": 4, "unit": "µg/mL"}, {"measurement": "MIC", "setting": "S. schottmuelleri", "value": 0.25, "unit": "µg/mL"}, {"measurement": "MIC", "setting": "S. typhi P58A", "value": 0.062, "unit": "µg/mL"}]}]}
